Experimental data reported in PMC11946789, “Two Amino Acid Substitutions Improve the Pharmacological Profile of the Snake Venom Peptide Mambalgin” (Toxins, 2025).
Entries after “also recorded” stand apart in the source; their conditions may differ. Bridges are numbered along the chain shown (N, C = ends). Where no end group is shown, it is not given here.

Target: T1, homomeric rat ASIC1b (rASIC1b) (Rattus norvegicus, UniProt P55926)
T1 construct: expressed in transfected cells; host or cells: Xenopus laevis oocytes, mRNA microinjected
T1 sequence (P55926 1-559 isoform P55926-3): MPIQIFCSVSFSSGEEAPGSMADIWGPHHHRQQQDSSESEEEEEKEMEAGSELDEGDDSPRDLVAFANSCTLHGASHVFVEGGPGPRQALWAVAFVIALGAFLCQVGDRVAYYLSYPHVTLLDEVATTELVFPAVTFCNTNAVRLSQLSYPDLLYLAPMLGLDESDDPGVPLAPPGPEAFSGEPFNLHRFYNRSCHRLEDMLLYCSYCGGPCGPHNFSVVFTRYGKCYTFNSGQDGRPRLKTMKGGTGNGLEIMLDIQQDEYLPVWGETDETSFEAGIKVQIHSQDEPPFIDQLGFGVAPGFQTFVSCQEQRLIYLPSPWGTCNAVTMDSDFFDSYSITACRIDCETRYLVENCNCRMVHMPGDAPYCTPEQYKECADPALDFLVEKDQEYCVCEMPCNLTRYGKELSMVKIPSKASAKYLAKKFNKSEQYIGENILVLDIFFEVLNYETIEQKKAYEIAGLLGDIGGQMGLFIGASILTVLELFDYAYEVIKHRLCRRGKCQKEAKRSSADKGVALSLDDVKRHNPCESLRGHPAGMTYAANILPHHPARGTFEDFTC
Assay: TEVC recordings, homomeric rASIC1b
Assay type: cell-based
Description: Figure 4 The inhibitory effect of Mamb-AL on other ASIC1-containing channels exceeds that of Mamb. (A,C) Representative current traces showing the effects of various concentrations of Mamb (left panels) and Mamb-AL (right panels) on homomeric rat ASIC1b (rASIC1b) (A) and heteromeric rat ASIC1a/3 (rASIC1a/3) channels (C). Currents were evoked by a pH 5.5 stimulus following a conditioning pH of 7.4, with peptides applied for 30 s prior to the pH stimulus. (B) Dose–response curves for the inhibitory effects of Mamb and Mamb-AL on rASIC1b. Each data point represents measurements from 5 to 7 cells. (D) Bar graph quantifying the inhibitory effects of Mamb and Mamb-AL on rASIC1a/3, shown as a percentage of the corresponding control currents (n = 5). Data are presented as mean ± SEM; * p< 0.05, unpaired t-test. […] Data are shown as mean ± SEM; ns indicates no significant difference vs. control (dotted horizontal line), paired t-test. […]
Whole-cell ASIC currents were measured using the two-electrode voltage clamp (TEVC) method with a GeneClamp 500 amplifier (Axon Instruments, Union City, NJ, USA). […]
Electrophysiological and behavioral data were analyzed using OriginPro 8.6.0 (OriginLab, Washington, DC, USA). […] Statistical significance between the Mamb and Mamb-AL groups was determined using an unpaired t-test. […]

LKCYQHGKVVTCHRDAKFCYHNTGLPFRNLKLILQGCSSSCSETENNKCCSTDRCNK (disulfide 3-19, 12-37, 41-49, 50-55 (inferred)) [Mamb-AL]
greater potency / inhibition of rASIC1b (compared with Mamb): five-fold; also recorded: five times greater potency
IC50 (pH stimulus 5.5, conditioning pH 7.4, peptide applied 30 s before stimulus, Xenopus laevis oocytes, mean ± SEM, 5 to 7 cells): 22 ± 1 nM
